In PMC6877910, “Astrocyte-Targeted Transporter-Utilizing Derivatives of Ferulic Acid Can Have Multifunctional Effects Ameliorating Inflammation and Oxidative Stress in the Brain” (Oxidative Medicine and Cellular Longevity, 2019):
Several values for one entry are separate records, joined by “and”; a condition that tells them apart may be missing. Equal values may be shown once. Read-outs that look alike come from different tables or passages of the source.

How the values were obtained:
in vitro = in vitro ADME; conditions: mouse; for fraction unbound at 4 h, 10 μM: C57BL/6J
Description: The unbound fraction of FA and its derivatives 1-2 was determined at 10 μM in cell homogenate by using a Rapid Equilibrium Dialysis (RED) device (Thermo Fisher Scientific, Inc., Waltham, MA, USA). Briefly, the cell homogenate was prepared from astrocyte cell suspension (10 × 10^6 cells/mL) in HBSS with a SoniPerp 150 Plus disintegrator (MSE Ltd., London, UK) for 2 s × 3. 100 μL of cell homogenate spiked with the studied compound was added to the reaction chamber, and 350 μL of HBSS buffer was added to the buffer chamber of the RED plate. The dialysis plate was incubated at 37°C for 4 h with shaking. 50 μL of samples was taken from the reaction, and buffer chambers and equal size of buffer or blank homogenate were added, respectively, to yield identical matrices. The proteins were precipitated by adding 100 μL of ice-cold ACN (including the selected internal standard; […]

LAT1 = molecular target: T1, LAT1 (Mus musculus, UniProt Q9Z127); experiment: Ability to bind LAT1: inhibition of [14C]-L-leucine uptake in mouse primary astrocytes; type: cell-based; conditions: mean ± SD; for IC50: n = 3-4, read-out: IC50 in astrocytes (LAT1-probe substrate [14C]-L-leucine uptake)
T1 construct: mouse primary astrocytes, from which we have recently characterized LAT1 expression and function; endogenous in cells; host or cells: mouse primary astrocytes (cortex and hippocampi of 2-day-old wild-type and APP/PS1 mice)
Description: For the transporter binding studies, the astrocytes were seeded on 24-well plates with a density of 10 × 10^4 cells/well three days before the experiments. After removal of the culture medium, the cells were carefully washed with prewarmed HBSS (Hank's balance salt solution) containing choline chloride (125 mM), KCl (4.8 mM), MgSO4 (1.2 mM), KH2PO4 (1.2 mM), CaCl2 (1.3 mM), glucose (5.6 mM), and HEPES (25 mM) adjusted to pH 7.4 with 1 M NaOH. The cells were preincubated with 500 μL of prewarmed HBSS at 37°C for 10 min before the experiments. To study the ability of studied compounds to inhibit the uptake of a known LAT1 substrate, the cells were incubated at 37°C for 5 min with an uptake buffer (HBSS, 250 μL) containing 0.76 μM (0.25 mCi/mL or 9.85 MBq/mL) of [^14C]-L-leucine (PerkinElmer, Inc., Waltham, MA, USA) and 0.1-1000 μM of studied compound (or HBSS as blank). After incubation, the uptake was stopped by adding 500 μL of ice-cold HBSS and the cells were washed two times with ice-cold HBSS. The cells were then lysed with 500 μL of NaOH (0.1 M) for 60 min, and the lysate was mixed with 3.5 mL of Emulsifier safe cocktail (Ultima Gold, PerkinElmer, Inc., Waltham, MA, USA). The radioactivity in the cells was measured by liquid scintillation counting (MicroBeta^2 counter, PerkinElmer, Inc., Waltham, MA, USA). Half of maximum inhibitory concentration (IC50) values were calculated by nonlinear regression analysis (fitting the curve to log (concentration) vs. remaining normalized […]).

mTOR = experiment: Total amount of mTOR (ELISA) in cells; type: cell-based, mouse; conditions: 100 μM; 48 h
Description: Enzyme-Linked Immunosorbent Assay (ELISA) kits were used (mTOR SimpleStep ELISA Kit and NFκB p65 Total SimpeStep ELISA Kit, Abcam, Cambridge, UK) to quantify mammalian (or mechanistic) target of rapamycin (mTOR) and transcription factor NF-κB amounts, respectively. […] The control wells were treated with the solvent only (0.5% DMSO). Cells were solubilized using the provided extraction buffer with the kit, incubated on ice for 20 minutes and centrifuged at 18 000 × g for 20 min at 4°C. The supernatants were stored at -80°C till the day of the analysis. Standards and samples were then analyzed following the manufacturer's protocol (ELISA sandwich method) and by reading the absorbance with the EnVision plate reader (EnVision, PerkinElmer, Inc., Waltham, MA, USA) at 450 nm. The results were analyzed as pmol of formed mTOR or NF-κB per mL.

primary astrocytes = experiment: Astrocyte cell growth / viability (resazurin); type: cell-based; conditions: for Effect on astrocyte viability at low concentrations: 5-100 μM, 72 h; for Concentrations with significant antiproliferative efficacy on astrocytes: 72 h incubation, 5-400 μM
Description: Primary astrocytes were seeded at the density of 10 × 10^3 cells/well onto collagen-coated 96-well plates. The cells were used for the proliferation experiments one day after seeding. Concentrations of 5-400 μM FA or its LAT1-utilizing derivatives 1-3 were added into the growth medium and incubated for 3 days. Each day, the cell viability was determined by resazurin cell proliferation kit (Sigma, St. Louis, MO, USA), which is directly proportional to aerobic respiration and cellular metabolism of cells. The samples were measured fluorometrically by monitoring the increase in fluorescence at λex 560 nm and λem 590 nm (EnVision, PerkinElmer, Inc., Waltham, MA, USA). The cell viability was also followed by visualizing the wells with microscopy. The ability of compounds to inhibit the viability of the cells was expressed as percentages (%) compared to the untreated controls.

[1] = molecular target: T2, butyrylcholinesterase (BChE) (Mus musculus, UniProt Q03311); experiment: biochemical; type: biochemical; conditions: mouse brain S9 subcellular fraction, 30 min end point, mean ± SD, n = 3; for IC50: read-out: BuChE IC50 value
T2 construct: mouse brain S9 fraction was prepared by homogenizing freshly collected mouse brain; from tissue; host or cells: mouse brain S9 fraction (9 000 x g supernatant)
Description: Briefly, mouse brain S9 fraction was prepared by homogenizing freshly collected mouse brain with 50 mM Tris-buffered saline (TBS) (pH 7.4) (1 : 4, w/v), centrifuging the homogenate at 9 000 × g for 20 min at 4°C and collecting the supernatant. The supernatant was then diluted at 1 : 10 with phosphate-buffered saline (100 mM; pH 7.0) and mixed with Ellman's reagent (5,5′-dithiobis-(2-nitrobenzoic acid); DTNB; 1 mM) and studied compounds in DMSO (DMSO concentration was less than 0.5%) on a 96-well plate as 3 parallel assays.

[2] = 10 μM in astrocyte cell homogenate, mean ± SD, n = 3, read-out: Unbound fraction fu,cell

T1 sequence (Q9Z127 whole entry): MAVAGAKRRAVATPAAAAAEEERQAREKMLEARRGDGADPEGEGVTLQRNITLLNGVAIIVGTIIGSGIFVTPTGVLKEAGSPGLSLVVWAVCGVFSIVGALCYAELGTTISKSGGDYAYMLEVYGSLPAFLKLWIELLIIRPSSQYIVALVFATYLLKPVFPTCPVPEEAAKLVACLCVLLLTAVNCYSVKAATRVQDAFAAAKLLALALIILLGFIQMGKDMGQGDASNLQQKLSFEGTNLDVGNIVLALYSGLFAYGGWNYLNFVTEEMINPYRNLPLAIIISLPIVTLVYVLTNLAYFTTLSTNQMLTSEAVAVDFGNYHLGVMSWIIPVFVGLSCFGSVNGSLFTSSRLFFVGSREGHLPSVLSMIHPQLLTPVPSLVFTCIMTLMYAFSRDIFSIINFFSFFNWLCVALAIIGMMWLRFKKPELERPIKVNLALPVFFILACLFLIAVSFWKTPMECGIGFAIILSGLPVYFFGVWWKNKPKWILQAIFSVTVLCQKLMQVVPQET
T1 sequence (P10852 whole entry partner): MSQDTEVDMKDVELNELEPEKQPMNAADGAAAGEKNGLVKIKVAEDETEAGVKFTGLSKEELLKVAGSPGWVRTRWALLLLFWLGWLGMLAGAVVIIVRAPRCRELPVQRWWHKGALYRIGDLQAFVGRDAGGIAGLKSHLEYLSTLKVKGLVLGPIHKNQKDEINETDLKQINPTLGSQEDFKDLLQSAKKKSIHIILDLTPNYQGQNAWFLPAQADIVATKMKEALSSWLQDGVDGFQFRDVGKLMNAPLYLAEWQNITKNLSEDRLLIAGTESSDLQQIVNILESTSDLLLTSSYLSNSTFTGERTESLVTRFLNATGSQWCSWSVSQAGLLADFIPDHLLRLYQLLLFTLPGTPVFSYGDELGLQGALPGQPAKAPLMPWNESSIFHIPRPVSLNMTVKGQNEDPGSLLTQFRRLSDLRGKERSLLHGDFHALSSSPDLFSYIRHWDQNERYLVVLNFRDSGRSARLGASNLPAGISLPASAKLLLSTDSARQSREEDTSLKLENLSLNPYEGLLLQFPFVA
T2 sequence (Q03311 30-603): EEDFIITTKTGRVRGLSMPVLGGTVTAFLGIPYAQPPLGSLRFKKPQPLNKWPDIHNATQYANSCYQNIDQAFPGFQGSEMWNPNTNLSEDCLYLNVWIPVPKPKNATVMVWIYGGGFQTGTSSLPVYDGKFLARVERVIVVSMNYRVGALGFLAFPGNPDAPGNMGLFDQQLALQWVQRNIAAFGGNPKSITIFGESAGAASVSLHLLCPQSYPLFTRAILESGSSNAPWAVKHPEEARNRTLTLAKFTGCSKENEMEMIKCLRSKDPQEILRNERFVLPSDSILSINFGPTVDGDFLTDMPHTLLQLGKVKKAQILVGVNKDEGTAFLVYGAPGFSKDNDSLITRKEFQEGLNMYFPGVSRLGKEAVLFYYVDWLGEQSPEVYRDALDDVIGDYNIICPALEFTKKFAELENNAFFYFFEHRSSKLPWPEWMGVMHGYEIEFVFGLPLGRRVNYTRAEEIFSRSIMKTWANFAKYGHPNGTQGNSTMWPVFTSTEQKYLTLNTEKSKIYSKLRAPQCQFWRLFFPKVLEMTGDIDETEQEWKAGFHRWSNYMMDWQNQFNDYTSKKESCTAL

Row | SMILES | fraction unbound at 4 h, 10 μM (in vitro; tissue homogenate) | Unbound fraction fu,cell (in vitro; tissue homogenate) | IC50 in astrocytes (LAT1-probe substrate [14C]-L-leucine uptake) (LAT1; n = 3-4) | Reduction of total amount of mTOR (mTOR) | Effect on astrocyte viability at low concentrations (primary astrocytes) | Concentrations with significant antiproliferative efficacy on astrocytes (primary astrocytes) | BuChE IC50 value [1] | fraction unbound at 4 h, 10 μM (in vitro; [2]) | IC50 (LAT1) | Increase of the amount of mTOR (mTOR) | IC50 [1] [µM]
1 | COc1cc(/C=C/C(=O)O)ccc1O [FA, trans-4-hydroxy-3-methoxycinnamic acid, reference compound] | 1 | Fully unbound | No inhibition | did not affect | increased the viability | above 200 μM | No inhibition |  |  |  | 
2 | COc1cc(C=CC(=O)NCc2cccc(CC(N)C(=O)O)c2)ccc1O (centres unmarked) [FA-derivative 1] |  |  |  |  | increased the viability | above 200 μM |  | 0.163 ± 0.0272 | 2.2 µM and 2.15 µM | approximately 28% | 220.8 ± 1.14
3 | COc1cc(C=CC(=O)Nc2cccc(CC(N)C(=O)O)c2)ccc1O (centres unmarked) [FA-derivative 2] |  |  |  | approximately 32% | increased the viability | above 200 μM | No inhibition | 0.0806 ± 0.0054 | 8.9 ± 1.25 µM |  | 
4 | COc1cc(C=CC(=O)Oc2cccc(CC(N)C(=O)O)c2)ccc1O (centres unmarked) [FA-derivative 3] |  |  |  | approximately 14% |  | above 200 μM |  |  | 28.7 ± 1.15 µM |  | 236.1 ± 1.26
